{
  "source": "paper PMC9913425",
  "about": "“Pentacyclic Triterpenoids-Based Ionic Compounds: Synthesis, Study of Structure–Antitumor Activity Relationship, Effects on Mitochondria and Activation of Signaling Pathways of Proliferation, Genome Reparation and Early Apoptosis” (Cancers, 2023)",
  "key": {"Chk2": {"tested_on": "Chk2", "experiment": "Luminex xMAP DNA Damage/Genotoxicity panel, phosphorylated Chk2", "format": "cell-based", "settings": "Jurkat cells; 12a 0.006 µM, 13d 0.004 µM per 100,000 cells; 6 and 12 h", "excerpt": "[Worded in the source for another target; used here, by the source, with some conditions changed.] (§1) The determination of proteins in a cell by Luminex xMAP technology is characterized by the presence of multiplex multiparametric analysis with the simultaneous use of a multiplex of antibodies with a fluorescent label and magnetic particles, thereby resulting in an increase in the sensitivity of the technique and expansion of the dynamic range, as well as an increase in detection accuracy. Luminex XMAP technology provides a simultaneous analysis of a sufficient number of different proteins in various types of biological fluids (plasma, serum, cerebrospinal fluid, follicular fluid, tissue lysate, etc.) and in cell supernatants. Consequently, multiplexing saves time/costs and ensures the same conditions for the measurements, which is essential for significance and statistical processing.\nMagnetic microspheres (stained inside with two fluorescent dyes) in combination with monoclonal antibodies against the analyzed analytes (the main intracellular kinases in this case) are incubated with the samples and standards; then, the samples/standards are incubated with biotinylated monoclonal antibodies against the analyzed analytes and, finally, with a solution of streptavidin–phycoerythrin. The Luminex technology identifies the different proteins present in each well and converts the mean fluorescence intensity (MFI) of each measured cytokine to pg/mL using software and standard curves. This approach is successfully applied in fundamental and clinical research. In this work, we analyzed various protein analytes that make up the phosphorylated and non-phosphorylated fractions of the main kinases in the signaling pathways: CREB, JNK, NFkB, p38, ERK1/2, Akt, p70S6K, STAT3, STAT5 proteins in six samples of lysates of Jurkat tumor cells by Luminex technology (MILLIPLEX® MAP 9-Plex Multi-Pathway 9-plex Magnetic Bead Kit)."}, "[1]": {"tested_on": "mitochondria of Jurkat tumor cells", "experiment": "Mitochondrial damage (MitoSense Red staining)", "format": "cell-based", "settings": "compound at IC50 concentration, incubation 2 h"}, "STAT5": {"tested_on": "STAT5", "experiment": "Luminex xMAP Multi-Pathway 9-plex, tyrosine-phosphorylated STAT5", "format": "cell-based", "settings": "Jurkat cells; 12a 0.006 µM, 13d 0.004 µM per 100,000 cells; lasting up to 12 h", "excerpt": "as §1, with “Consequently, multiplexing saves time/costs and ensures the same conditions for the measurements, which is essential for significance and statistical processing.” left out\n(§2) Magnetic microspheres (stained inside with two fluorescent dyes) in combination with monoclonal antibodies against the analyzed analytes (the main intracellular kinases in this case) are incubated with the samples and standards; then, the samples/standards are incubated with biotinylated monoclonal antibodies against the analyzed analytes and, finally, with a solution of streptavidin–phycoerythrin. The Luminex technology identifies the different proteins present in each well and converts the mean fluorescence intensity (MFI) of each measured cytokine to pg/mL using software and standard curves. […]\n(§3) The specific role of STAT3 and STAT5 was assessed by changes in the content of tyrosine-phosphorylated forms of these proteins (STAT3(ph) and STAT5(ph)). […]"}, "p53": {"tested_on": "p53", "experiment": "Luminex xMAP panel, p53 protein content", "format": "cell-based", "settings": "Jurkat cells; 12a 0.006 µM, 13d 0.004 µM per 100,000 cells; first 6 h"}, "Jurkat cells [2]": {"tested_on": "Jurkat cells", "experiment": "Apoptosis/necrosis induction (Annexin V Alexa Fluor488, 7AAD staining)", "format": "cell-based", "settings": "compound at IC50 concentration, incubation 2 h", "in_short": "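Jurkat cells stained with Annexin V Alexa Fluor488, 7AAD and MitoSense Red to assess membrane state, DNA and mitochondrial membrane integrity, distinguishing apoptosis from necrosis; lower MitoSense Red fluorescence marks mitochondrial damage.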"}, "A2780": {"tested_on": "A2780", "experiment": "In vitro cytotoxicity, IC50 by flow cytometry (Guava ViaCount)", "format": "cell-based, human", "in_short": "(§4)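 Suspension lines kept in RPMI 1640 with 10% FBS and […] at 37 °C, 5% CO2; cells seeded at 5 × 10^4 per well and incubated overnight before compound exposure. Viability counted by flow cytometry with Guava ViaCount staining to derive IC50.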"}, "HL60": {"tested_on": "HL60", "experiment": "In vitro cytotoxicity, IC50 by flow cytometry (Guava ViaCount)", "format": "cell-based, human", "in_short": "as §4"}, "STAT3": {"tested_on": "STAT3", "experiment": "Luminex xMAP Multi-Pathway 9-plex, tyrosine-phosphorylated STAT3", "format": "cell-based", "settings": "Jurkat cells; 12a 0.006 µM, 13d 0.004 µM per 100,000 cells; up to 12 h; compared with STAT5 (3-fold)", "excerpt": "as §1, with “Consequently, multiplexing saves time/costs and ensures the same conditions for the measurements, which is essential for significance and statistical processing.” left out\nas §2, §3"}, "Jurkat cells [3]": {"tested_on": "Jurkat cells", "experiment": "Cell cycle analysis (Guava Cell Cycle Reagent)", "format": "cell-based", "settings": "IC50 concentration, 24 h, flow histogram", "experimental": "Our findings are consistent with the literature data that many ICs predominantly affect the G2 and S phases, reducing them.\nThe incubation time of ionic liquids with cells was 24 h. […] It is listed because the picture prints the label with values. / The fit parameters printed in each histogram (RMS, Mean G1, Mean G2, G2/G1, CV G1, CV G2) were left out as statistics of the cell-cycle model."}},
  "data": [
    {"compound": "CC1(C)CC[C@]2(C(=O)OCCCCCC[n+]3ccccc3)CC[C@]3(C)C(=CCC4[C@@]5(C)CC[C@H](O)C(C)(C)C5CC[C@]43C)C2C1", "note": "(stereo partly drawn) [12a, 1-(6-{[(3β)-3-Hydroxyolean-12-en-28-oyl]oxy}hexyl)-pyridinium bromide]", "values": [
      {"measurement": "content of phosphorylated checkpoint kinase Chk2", "setting": "Chk2", "value": "significantly decreases"},
      {"measurement": "Mito-Damage (%)", "setting": "[1]", "value": 97.89, "unit": "%"},
      {"measurement": "increase in the content of STAT5", "setting": "STAT5", "value": 3, "unit": "fold"},
      {"measurement": "expression of p53 protein", "setting": "p53", "value": "significantly increased"},
      {"measurement": "Apoptosis (%) Early", "setting": "Jurkat cells [2]", "value": 0, "unit": "%"},
      {"measurement": "Apoptosis (%) Late", "setting": "Jurkat cells [2]", "value": 22.63, "unit": "%"},
      {"measurement": "Apoptosis (%) Necrosis", "setting": "Jurkat cells [2]", "value": 65.18, "unit": "%"},
      {"measurement": "percentage of cells in the apoptotic state", "setting": "Jurkat cells [2]", "value": 87.81, "unit": "%"},
      {"measurement": "IC50", "setting": "A2780; Homo sapiens, A2780, A2780 cells", "value": "21 ± 2", "unit": "nM"},
      {"measurement": "IC50", "setting": "HL60; Homo sapiens, HL-60, HL60 cells", "value": "3 ± 1", "unit": "nM"},
      {"measurement": "increase in the content of STAT3", "setting": "STAT3", "value": "to a lesser extent"}
    ]},
    {"compound": "CC(=O)[O-].C[n+]1ccn(CCCCCCOC(=O)[C@]23CCC(C)(C)CC2C2=CCC4[C@@]5(C)CC[C@H](O)C(C)(C)C5CC[C@@]4(C)[C@]2(C)CC3)c1", "note": "(stereo partly drawn) [13d, 1-(6-{[(3β)-3-Hydroxyolean-12-en-28-oyl]oxy}hexyl)-3-methylimidazolium Acetate]", "values": [
      {"measurement": "content of phosphorylated checkpoint kinase Chk2", "setting": "Chk2", "value": "significantly decreases"},
      {"measurement": "Mito-Damage (%)", "setting": "[1]", "value": 97.47, "unit": "%"},
      {"measurement": "increase in the content of STAT5", "setting": "STAT5", "value": 3, "unit": "fold"},
      {"measurement": "expression of p53 protein", "setting": "p53", "value": "significantly increased"},
      {"measurement": "Apoptosis (%) Early", "setting": "Jurkat cells [2]", "value": 11.00, "unit": "%"},
      {"measurement": "Apoptosis (%) Necrosis", "setting": "Jurkat cells [2]", "value": 85.0, "unit": "%"},
      {"measurement": "percentage of cells in the apoptotic state", "setting": "Jurkat cells [2]", "value": 98.32, "unit": "%"},
      {"measurement": "Freq Sub-G1 (hypodiploid cell population)", "setting": "Jurkat cells [3]", "value": 6.91, "unit": "%"},
      {"measurement": "IC50", "setting": "A2780; A2780 cells", "value": "16 ± 2", "unit": "nM"},
      {"measurement": "IC50", "setting": "HL60; HL60 cells", "value": "2 ± 1", "unit": "nM"},
      {"measurement": "increase in the content of STAT3", "setting": "STAT3", "value": "to a lesser extent"}
    ]}
  ]
}
